Data reported in patent US4479945A, “Inter-m-phenylene-prostacyclin analogues and use thereof in inhibiting blood platelet aggregation” (Chinoin Gyogyszer Es Vegyeszeti Termekek Gyara R.T., priority 1981, dated 1984).
Converted amounts (≈) assume the structure as drawn. “Also recorded” adds a separate entry of the source.

Columns and labels:
blood pressure = experiment: Antihypertensive activity (blood pressure reduction, ED25) on narcotized rats; assay type: in vivo, rat; settings: for relative anti-hypertensive efficiency ED25 PGI2 /ED25 test-compound: molar dose for 25 mmHg blood pressure reduction, narcotized rats, sodium salts; for hypotensive / antihypertensive side effect (in words): compared with PGI2 or compounds of the state of art
Experimental: The antihypertensive activity was determined on narcotized rats. From the data of the blood pressure tests the molar dose /ED25 / inducing 25 mmHg /3.33 kPa/ blood pressure reduction was calculated.

[1] = tested on: coronary arteries of the heart; peripheral circulation vessels; settings: literature; cited from earlier work
thrombocyte aggregation [2] = experiment: Thrombocyte (blood platelet) aggregation, Payton aggregometer, induced with 2 μM ADP, plasma enriched in thrombocytes (PRP); assay type: cell-based, human; settings: for antiaggregatory activity (in words): compared with PGI2 or compounds of the state of art
Experimental: The thrombocyte aggregation was measured with a Payton type aggregometer of two channels in 0.5 ml. end volume. […] The cubital venal blood was mixed with a 3.8% Na-citrate solution at a ratio of 9:1 and in order to obtain a plasma enriched in thrombocytes (PRP) blood was centrifuged for 5 minutes at 230 g, while plasma poor in thrombocytes was obtained after 10 minutes of centrifuging. The blood platelet number of the plasma was adjusted to […]. The tests were performed within 1 hour after the blood taking. The prostacycline sensitivity of each plasma was controlled before measuring the test substances. IC50 value of prostacycline on plasma enriched in thrombocytes: 0.6-1.0 ng/ml.
Thrombocyte aggregation was induced with 2 μM ADP. The test compounds were dissolved in 0.1M tris-HCl buffer of pH=7.8 and the temperature was maintained at 0° to 4° C.
The compounds were tested repeatedly after some time and were kept in solution at 0°-4° C. IC50 values were calculated graphically.

thrombocyte aggregation [3] = settings: literature; cited from earlier work

| SMILES | relative anti-hypertensive efficiency ED25 PGI2 /ED25 test-compound (blood pressure; related to PGI2) | antiaggregatory activity (in words) (thrombocyte aggregation [2]) | hypotensive / antihypertensive side effect (in words) (blood pressure) | further results |
| --- | --- | --- | --- | --- |
| CCCCCC(O)C=CC1C(O)CC2OC(=Cc3cccc(C(=O)O)c3)CC21 (centres unmarked) [45842/A, 5(Z)-2,3,4-trinor-1,5-inter-m-phenylene-PGI2] | 1/10 |  |  |  |
| CCCCC[C@H](O)/C=C/[C@@H]1[C@H]2C/C(=C/CCCC(=O)O)O[C@H]2C[C@H]1O [PGI2] | 1/1 |  |  | further physiological activities (in words) [1]: relaxation of the coronary arteries of the heart and dilatation of the peripheral circulation vessels; IC50 (thrombocyte aggregation [2]; Homo sapiens, Platelet, control of prostacycline sensitivity of each plasma): 0.6 to 1 ng/mL (≈ 1.7 to 2.84 nM); relative anti-aggregatory efficiency IC50 PGI2 /IC50 test-compound (thrombocyte aggregation [2]; related to PGI2, 2 μM ADP, human PRP, sodium salts): 1/1; antiaggregatory and desaggregatory activity (in words) (thrombocyte aggregation [3]): most active antiaggregatory and desaggregatory agent |
| CCCCCCC(O)C#CC1C(O)CC2OC(=Cc3cccc(C(=O)O)c3)CC21 (centres unmarked) [compound "A", 5(Z)-2,3,4-trinor-1,5-inter-m-phenylene-13,14-didehydro-20-methyl-PGI2] |  | better activity | less side effects |  |
| CCCCCCCC(O)C#CC1C(O)CC2OC(=Cc3cccc(C(=O)O)c3)CC21 (centres unmarked) [compound "B", 5(Z)-2,3,4-trinor-inter-m-phenylene-13,14-didehydro-20-ethyl-PGI2] |  | better activity; also recorded: substantially the same as that of PGI2 | less side effects | antihypertensive activity as part of the activity of PGI2 (blood pressure; related to PGI2): about 2/100 |
